Assay results published in EP2420245A1, “Therapeutic use of agonists or antagonists of bradykinin receptor 1 or 2, for modulation collateral blood vessel growth” (MAX-DELBRÜCK-CENTRUM FÜR MOLEKULARE MEDIZIN, priority 2010, dated 2012).

How the values were obtained:
[1] = test system: 3-vessel occlusion (3-VO) cerebral arteriogenesis model in rat; assay: 3-vessel occlusion (3-VO) cerebral arteriogenesis model: collateral growth / diameter of the posterior cerebral artery (postmortem latex perfusion); assay type: in vivo; conditions: rat 3-VO model, antagonist treatment, 3 weeks post 3-VO (Figure 5)
Description: Pharmacological modulation of arteriogenesis was analysed using a 3 vessel occlusion (3-VO) model for cerebral arteriogenesis in the rat (Occlusion of both vertebral arteries and one carotid artery). Upon occlusion of three of four blood-supplying arteries to the brain, blood flow is redistributed by the recruitment of collateral pathways such as the posterior cerebral artery to supply the hypoperfusion area with blood. The 3-VO model in the rat has been established since 2003 and is acknowledged as a hypoperfusion model for testing cerebral arteriogenesis (Busch, Buschmann et al. 2003). By using the 3-VO model, relevant therapeutic stimulation of arteriogenesis was shown for instance by the application of GM-CSF (Buschmann, Circulation 2003).
Either by inhibition or stimulation of the bradykinin receptor signalling pathways, arteriogenesis was determined and physiological parameters of the brain were tested.
The characterisation of arteriogenesis was carried out via measurement of the artery or blood vessel diameter (posterior cerebral artery - PCA) in addition to via a measurement of the cerebrovascular reactivity (perfusion reserves in the brain). Cerebrovascular anatomy was studied after maximal vasodilation by a modification of the postmortem latex perfusion method of Maeda et al (Maeda, Hata et al. 1998) .

[2] = relative to the natural ligand Lys-desArg-bradykinin; cited from earlier work

Compound	arteriogenesis (collateral growth) [1]	susceptibility toward proteolysis [2]
(Des-Arg^9, Leu^8)-bradykinin [H1960]	inhibited	
CNCC(=O)N[C@@H](CCCNC(=N)N)C(=O)N1CCC[C@H]1C(=O)N1CCC[C@H]1C(=O)NCC(=O)N[C@@H](Cc1ccccc1)C(=O)N[C@@H](CO)C(=O)N1CCC[C@H]1C(=O)N[C@H](Cc1ccccc1)C(=O)O [R838, Sar-[D-Phe]des-Arg^9-bradykinin]		lower
